Laboratory results reported in PMC467046, “Computational and spectroscopic insight into the binding of citral with human transferrin: Targeting neurodegenerative diseases” (Heliyon, 2024).

Biological target: T1, human transferrin (htf) (Homo sapiens, UniProt P02787)
T1 construct: gene TF; single-chain glycoprotein of 679 amino acids (mature)
Assay: intrinsic fluorescence quenching, modified Stern-Volmer plot
Format: binding
Conditions: 298 K; 4 uM htf, 0-8 uM citral; excitation 280 nm; double-log
Source text: intrinsic fluorescence quenching, modified Stern-Volmer plot on human transferrin (htf)

T1 sequence (P02787 20-698): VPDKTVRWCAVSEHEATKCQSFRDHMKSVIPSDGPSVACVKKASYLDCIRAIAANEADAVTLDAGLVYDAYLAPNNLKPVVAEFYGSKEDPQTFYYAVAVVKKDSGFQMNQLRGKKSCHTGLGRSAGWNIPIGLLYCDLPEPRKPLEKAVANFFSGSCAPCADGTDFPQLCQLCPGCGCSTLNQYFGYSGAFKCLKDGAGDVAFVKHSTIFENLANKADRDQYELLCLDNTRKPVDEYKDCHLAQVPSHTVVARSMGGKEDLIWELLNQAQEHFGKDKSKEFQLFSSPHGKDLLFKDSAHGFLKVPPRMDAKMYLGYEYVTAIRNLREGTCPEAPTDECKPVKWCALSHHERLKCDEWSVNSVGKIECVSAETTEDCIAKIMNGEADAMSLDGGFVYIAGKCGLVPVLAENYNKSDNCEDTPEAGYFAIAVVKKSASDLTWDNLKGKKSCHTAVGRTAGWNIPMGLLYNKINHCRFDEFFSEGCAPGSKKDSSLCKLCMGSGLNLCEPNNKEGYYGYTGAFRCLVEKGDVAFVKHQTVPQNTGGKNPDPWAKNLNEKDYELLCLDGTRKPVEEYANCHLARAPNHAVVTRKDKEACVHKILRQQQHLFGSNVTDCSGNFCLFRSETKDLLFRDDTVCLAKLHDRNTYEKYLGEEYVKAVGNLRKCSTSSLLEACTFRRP

K 10^6M^-1: 0.82 10^6 M^-1
SMILES: CC(C)=CCCC(C)=CC=O [citral]
